Results published in patent US5438062A, “Benzo(5,6)cycloheptapyridines, compositions and methods of use” (Schering Corporation, priority 1987, dated 1995).

How the values were obtained:
[1] = tested on: PAF-induced bronchospasm; experiment: PAF-induced bronchospasm in guinea pigs; format: in vivo; settings: guinea pig
Method: PAF is also a known bronchoconstrictive agent in mammals.
B. PAF-INDUCED BRONCHOSPASM IN GUINEA PIGS
Non-sensitized guinea Digs were fasted overnight, and the following morning were anesthetized with 0.9 ml/kg i.p. of dialurethane (0.1 g/ml of diallybarbituric acid, 0.4 g/ml of ethylurea and 0.4 g/ml of urethane). The trachea was cannulated and the animals were ventilated by a Harvard rodent respirator at 55 strokes/min. with a stroke volume of 4 ml. A side arm to the tracheal cannula was connected to a Harvard pressure transducer to obtain a continuous measure of intratracheal pressure, which was recorded on a Harvard Polygraph. The jugular vein was cannulated for the administration of compounds. The animals were challenged i.v. with PAF (0.4 ug/kg in isotonic saline containing 0.25% BSA) and the peak increase in inflation pressure that occurred within 5 min. after challenge was recorded. Test compounds were administered either orally (2 hrs. prior to PAF as a suspension in 0.4% methylcellulose vehicle) or intravenously (10 min. prior to PAF as a solution in dimethylsulfoxide).

[2] = tested on: PAF-induced platelet aggregation (platelet-rich plasma); experiment: PAF antagonism, in vitro platelet aggregation assay; format: cell-based; settings: dose giving 50 % PAF antagonism, human PRP, PAF 1-5×10^-8 M
Method: Blood was centrifuged at 110×g for 15 min. and the supernatant PRP carefully transferred into a polypropylene tube. Platelet-poor-plasma (PPP) was prepared by centrifuging PRP at 12,000×g for 2 min. in a Beckman Microfuge B. PRP was used within 3 hours of drawing the blood.
Platelet Aggregation Assay: When an aggregating agent such as PAF is added to PRP, platelets aggregate. An aggregometer quantifies this aggregation by measuring light (infra-red) transmission through PRP and comparing to PPP. The aggregation assays were performed using a dual-channel aggregometer (Model 440, Chrono-Log Corp., Hayertown, Pa.). PRP (0.45 ml) in aggregometer curettes was continually stirred (37° C.). Solutions of test compounds or vehicle were added to the PRP, and after incubation for 2 min., 10-15 μl aliquots of PAF solution were added so as to achieve a final concentration of 1-5×10^-8 M. Incubations were continued until the increase in light transmission reached a maximum (usually about 2 min). Values for inhibition were calculated by comparing maximal aggregation obtained in the absence and the presence of the compound. For each experiment, a standard PAF antagonist, such as alprazolam, was used as a positive internal control. […] The test results are shown below in Tables Ia, Ib and Ic.

[3] = tested on: histamine-induced lethality; experiment: Antihistamine activity: prevention of histamine-induced lethality in guinea pigs; format: in vivo; settings: Cavia porcellus, guinea pig; for responders at 5 mg/kg: oral dose 5 mg/kg PO
Method: C. ANTIHISTAMINE ACTIVITY ASSAY
Prevention of Histamine-Induced Lethality in Guinea Pigs. Some of compounds shown below in Table I also were evaluated for antihistamine activity by their ability to protect female albino guinea pigs (250-350 g) against death induced by the intravenous injection of histamine dihydrochloride at 1.1 mg/kg, which is approximately twice the LD99. Doses of the antagonists were administered orally to separate groups of fasted animals 1 hour prior to the challenge with histamine and protection from death recorded for 30 minutes after histamine. ED50 values were determined for each drug by probit analysis.

[4] = CNS activity: antagonism of electro-convulsive shock (ECS); settings: mouse, in vivo; mice, oral, one hour before ECS; read-out: ECS test ED50
Method: F. Antagonism of Electro-Convulsive Shock (ECS). The ECS test is a third test useful for determining CNS activity. […] One hour after oral administration of the test drug or vehicle, mice were administered a 13 mA, 60 cycle a.c. electroconvulsant shock (ECS) for 0.2 seconds via corneal electrodes.

[5] = CNS activity: antagonism of acetic acid writhing; settings: mouse, in vivo; mice, oral, 15 minutes before acetic acid i.p.
Method: E. Antagonism of Acetic Acid Writhing. The acetic acid writhing test is a second test useful for determining CNS activity, and is essentially that described by HENDERSHOT and FORSAITH, J. Pharmac. […] Mice were injected with 0.6% aqueous acetic acid at 10 mg/kg i.p. 15 minutes after oral administration of the test drug. The number of writhes for each animal was counted during a 10 minute period starting 3 minutes after acetic acid treatment. A writhe was defined as a sequence of arching of the back, pelvic rotation and hind limb extension.

[6] = CNS activity: antagonism of physostigmine lethality; settings: mouse, in vivo; mice, oral, 30 minutes prior to physostigmine 1.0 mg/kg s.c.
Method: D. Antagonism of Physostigmine Lethality. The physostigmine-induced lethality test is indicative of CNS activity and the test described is a modification of the technique reported by COLLIER et al., Br. J. Pharmac., 32, 295-310 (1968). physostigmine salicylate (1.0 mg/kg s.c.) produces 100% lethality when administered to mice grouped 10 per plastic cage (11×26×13 cm). Test agents were administered orally 30 minutes prior to physostigmine. The number of survivors were counted 20 minutes after physostigmine administration.

[7] = 0.5 h, 1 hour before histamine 1.1 mg/kg i.v., read-out: Antihistaminic Activity, % Survival

SMILES	inhibition of PAF-induced bronchospasm ([1]; 1 mg/kg intravenously) [%]	IC50 [2] [nM]	responders at 1 mg/kg ([3]; 0.5 h, oral dose 1 mg/kg PO, 1 hour before histamine 1.1 mg/kg i.v., read-out: Antihistaminic Activity, % Survival) [%]	responders at 5 mg/kg [3, 7] [%]	ED50 [4] [mg/kg]	ED50 [5] [mg/kg]	inhibition of PAF-induced bronchospasm ([1]; 3 mg/kg (iv)) [%]	ED50 ([3]; oral, probit analysis, read-out: Antihistaminic Activity, ED50) [mg/kg]	ED50 [6] [mg/kg]
CC(=O)N1CCC(=C2c3ccc(Cl)cc3CCc3cccnc32)CC1 [Z = O, R = CH3, R^3 = Cl, R^4 = H, 8-chloro-11-(1-acetyl-4-piperidylidene)-6,11-dihydro-5H-benzo[5,6]cyclohepta[1,2-b]pyridine]	75	700	60	100	> 320	> 160			
CC(=O)N1CCC(=C2c3cc(F)ccc3CCc3cccnc32)CC1 [R = CH3, Z = O, R^3 = H, R^4 = F, 9-fluoro-11-(1-acetyl-4-piperidylidene)-6,11-dihydro-5H-benzo[5,6]cyclohepta[1,2-b]pyridine]		900		0			97		
CN1CCC(=C2c3ccccc3CCc3cccnc32)CC1 [R^3 = H, R^4 = H, A = H, CZR = CH3, reference compound]		> 100000			> 80	8.9		0.009	6.1
